Test results taken from patent publication US6737383B1, “Herbicidal oxadiazolidines” (priority 1999, dated 2004).

How the values were obtained:
[1] = test system: rape; experiment: Test B pre/postemergence rape; assay type: in vivo, Brassica napus
Outline: (§1)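 Herbicidal effect was estimated by eye on a ten-point control scale after plants spent twelve to sixteen days in a greenhouse following soil or foliar treatment. Foliar sprays targeted plants at one to four leaves; all doses were formulated in a non-phytotoxic solvent with surfactant.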

[2] = test system: giant foxtail; experiment: Test B pre/postemergence giant foxtail; assay type: in vivo, Setaria faberii
Outline: as §1

[3] = test system: bedstraw; experiment: Test B pre/postemergence bedstraw; assay type: in vivo, Galium aparine
Outline: as §1

[4] = test system: bamyardgrass; experiment: Test B flood test barnyardgrass; assay type: in vivo, Echinochloa crus-galli
Outline: (§2)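 Each value is a visual injury score relative to controls, with 10 meaning complete control and 0 no effect. Evaluation took place twelve to sixteen days after the 2-leaf-stage plants were treated and kept in the greenhouse.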

[5] = test system: corn; experiment: Test B pre/postemergence corn; assay type: in vivo, Zea mays
Outline: as §1

[6] = test system: crabgrass; experiment: Test B pre/postemergence crabgrass; assay type: in vivo, Digitaria sanguinalis
Outline: as §1

[7] = test system: wheat; experiment: Test B pre/postemergence wheat; assay type: in vivo, Triticum aestivum
Outline: as §1

[8] = test system: soybean; experiment: Test B pre/postemergence soybean; assay type: in vivo, Glycine max
Outline: as §1

[9] = test system: velvetleaf; experiment: Test B pre/postemergence velvetleaf; assay type: in vivo, Abutilon theophrasti
Outline: as §1

[10] = test system: wild oat; experiment: Test B pre/postemergence wild oat; assay type: in vivo, Avena fatua
Outline: as §1

[11] = test system: surinam grass; experiment: Test B pre/postemergence surinam grass; assay type: in vivo, Brachiaria decumbens
Outline: as §1

[12] = test system: smallflower flatsedge; experiment: Test B flood test smallflower flatsedge; assay type: in vivo, Cyperus difformis
Outline: as §2

[13] = test system: blackgrass; experiment: Test B pre/postemergence blackgrass; assay type: in vivo, Alopecurus myosuroides
Outline: as §1

[14] = test system: morningglory; experiment: Test B pre/postemergence morningglory; assay type: in vivo, Ipomoea hederacea
Outline: as §1

[15] = test system: cocklebur; experiment: Test B pre/postemergence cocklebur; assay type: in vivo, Xanthium strumarium
Outline: as §1

[16] = test system: duck salad; experiment: Test B flood test duck salad; assay type: in vivo, Heteranthera limosa
Outline: as §2

[17] = Postemergence, Rate 62 g/ha, scale 0 to 10, 0 is no effect, 10 is complete control
[18] = Postemergence, Rate 250 g/ha, scale 0 to 10, 0 no effect, 10 complete control
[19] = Preemergence, Rate 62 g/ha, scale 0 to 10 (0 no effect, 10 complete control)
[20] = Preemergence, Rate 125 g/ha, scale 0 to 10 (0 no effect, 10 complete control)
[21] = Preemergence, Rate 250 g/ha, scale of 0 to 10 where 0 is no effect and 10 is complete control
[22] = Preemergence, Rate 500 g/ha, scale 0 (no effect) to 10 (complete control)
[23] = Rate 125 g/ha, Postemergence, scale 0 to 10, 0 no effect, 10 complete control
[24] = Rate 500 g/ha, Postemergence, scale 0 to 10, 0 no effect, 10 complete control
[25] = Rate 62 g/ha, headed Pre-emergence (flood test species), scale 0 to 10 (0 no effect, 10 complete control)
[26] = Rate 125 g/ha, Pre-emergence, flood test species, scale 0 to 10 where 0 is no effect and 10 is complete control
[27] = Rate 250 g/ha, headed Pre-emergence (flood test species), scale 0 to 10 (0 no effect, 10 complete control)
[28] = Rate 500 g/ha, headed Pre-emergence (flood test species), scale 0 to 10 (0 no effect, 10 complete control)

Cc1cccc(C)c1-n1c(=O)on(C(=O)N(Cc2ccccc2)C(C)C)c1=O [Compound 69]
Rape plant response rating [1, 17]: 0 | Rape plant response rating [1, 18]: 0 | Rape plant response rating [1, 19]: 0 | Plant response rating, Rape [1, 20]: 0 | Plant response rating, Rape [1, 21]: 0 | Rape plant response rating [1, 22]: 0 | Rape plant response rating [1, 23]: 0 | Rape plant response rating [1, 24]: 0 | Giant foxtail plant response rating [2, 17]: 0 | Giant foxtail plant response rating [2, 18]: 0 | Giant foxtail plant response rating [2, 19]: 0 | Plant response rating, Giant foxtail [2, 20]: 0 | Plant response rating, Giant foxtail [2, 21]: 4 | Giant foxtail plant response rating [2, 22]: 4 | Giant foxtail plant response rating [2, 23]: 0 | Giant foxtail plant response rating [2, 24]: 1 | Bedstraw plant response rating [3, 17]: 0 | Bedstraw plant response rating [3, 18]: 5 | Bedstraw plant response rating [3, 19]: 0 | Plant response rating, Bedstraw [3, 20]: 0 | Plant response rating, Bedstraw [3, 21]: 0 | Bedstraw plant response rating [3, 22]: 0 | Bedstraw plant response rating [3, 23]: 4 | Bedstraw plant response rating [3, 24]: 6 | Barnyardgrass plant response rating [4, 25]: 0 | Barnyardgrass plant response rating [4, 26]: 0 | Barnyardgrass plant response rating [4, 27]: 0 | Plant response rating, Barnyardgrass [4, 28]: 0 | Corn plant response rating [5, 17]: 0 | Corn plant response rating [5, 18]: 0 | Corn plant response rating [5, 19]: 0 | Plant response rating, Corn [5, 20]: 0 | Plant response rating, Corn [5, 21]: 0 | Corn plant response rating [5, 22]: 0 | Corn plant response rating [5, 23]: 0 | Corn plant response rating [5, 24]: 0 | Crabgrass plant response rating [6, 17]: 0 | Crabgrass plant response rating [6, 18]: 1 | Crabgrass plant response rating [6, 19]: 0 | Plant response rating, Crabgrass [6, 20]: 0 | Plant response rating, Crabgrass [6, 21]: 2 | Crabgrass plant response rating [6, 22]: 4 | Crabgrass plant response rating [6, 23]: 0 | Crabgrass plant response rating [6, 24]: 1 | Wheat plant response rating [7, 17]: 0 | Wheat plant response rating [7, 18]: 0 | Wheat plant response rating [7, 19]: 0 | Plant response rating, Wheat [7, 20]: 0 | Plant response rating, Wheat [7, 21]: 0 | Wheat plant response rating [7, 22]: 0 | Wheat plant response rating [7, 23]: 0 | Wheat plant response rating [7, 24]: 0 | Soybean plant response rating [8, 17]: 2 | Soybean plant response rating [8, 18]: 2 | Soybean plant response rating [8, 19]: 0 | Plant response rating, Soybean [8, 20]: 0 | Plant response rating, Soybean [8, 21]: 0 | Soybean plant response rating [8, 22]: 0 | Soybean plant response rating [8, 23]: 2 | Soybean plant response rating [8, 24]: 3 | Velvetleaf plant response rating [9, 17]: 0 | Velvetleaf plant response rating [9, 18]: 0 | Velvetleaf plant response rating [9, 19]: 0 | Plant response rating, Velvetleaf [9, 20]: 0 | Plant response rating, Velvetleaf [9, 21]: 0 | Velvetleaf plant response rating [9, 22]: 0 | Velvetleaf plant response rating [9, 23]: 0 | Velvetleaf plant response rating [9, 24]: 2 | Wild oats plant response rating [10, 17]: 0 | Wild oats plant response rating [10, 18]: 0 | Wild oats plant response rating [10, 19]: 0 | Plant response rating, Wild oats [10, 20]: 0 | Plant response rating, Wild oats [10, 21]: 0 | Wild oats plant response rating [10, 22]: 0 | Wild oats plant response rating [10, 23]: 0 | Wild oats plant response rating [10, 24]: 0 | B. signalgrass plant response rating [11, 17]: 0 | B. signalgrass plant response rating [11, 18]: 0 | B. signalgrass plant response rating [11, 19]: 0 | Plant response rating, B. signalgrass [11, 20]: 0 | Plant response rating, B. signalgrass [11, 21]: 0 | B. signalgrass plant response rating [11, 22]: 0 | B. signalgrass plant response rating [11, 23]: 0 | S. Flatsedge plant response rating [12, 25]: 0 | S. Flatsedge plant response rating [12, 26]: 0 | S. Flatsedge plant response rating [12, 27]: 0 | Plant response rating, S. Flatsedge [12, 28]: 0 | Blackgrass plant response rating [13, 17]: 0 | Blackgrass plant response rating [13, 18]: 0 | Blackgrass plant response rating [13, 19]: 0 | Plant response rating, Blackgrass [13, 20]: 0 | Plant response rating, Blackgrass [13, 21]: 0 | Blackgrass plant response rating [13, 22]: 0 | Blackgrass plant response rating [13, 23]: 0 | Blackgrass plant response rating [13, 24]: 0 | Morningglory plant response rating [14, 17]: 0 | Morningglory plant response rating [14, 18]: 0 | Morningglory plant response rating [14, 19]: 0 | Plant response rating, Morningglory [14, 20]: 0 | Plant response rating, Morningglory [14, 21]: 0 | Morningglory plant response rating [14, 22]: 0 | Morningglory plant response rating [14, 23]: 0 | Morningglory plant response rating [14, 24]: 0 | Cocklebur plant response rating [15, 17]: 0 | Cocklebur plant response rating [15, 18]: 0 | Cocklebur plant response rating [15, 19]: 0 | Plant response rating, Cocklebur [15, 20]: 0 | Plant response rating, Cocklebur [15, 21]: 0 | Cocklebur plant response rating [15, 22]: 0 | Cocklebur plant response rating [15, 23]: 0 | Cocklebur plant response rating [15, 24]: 0 | Ducksalad plant response rating [16, 25]: 0 | Ducksalad plant response rating [16, 26]: 0 | Ducksalad plant response rating [16, 27]: 0 | Plant response rating, Ducksalad [16, 28]: 0
